# Experimental data: patent publication US10472341B2, “Bicyclic tetrahydrothiazepine derivatives useful for the treatment of neoplastic and/or infectious diseases” (APEIRON BIOLOGICS AG, priority 2015, dated 2019)
# Where two headings read alike, the source gives them in different places.
# How the values were obtained:
# [1] = system: B16-F10-OVA tumors; assay: Immune modulation of B16-F10-OVA tumor bearing mice: tumor infiltration by immune cells (quantitative RT-PCR); type: in vivo, mouse; conditions: tumor mRNA
# Method: (§1) • Single cell suspension of splenocytes was prepared from the spleen by rinsing cells through a sterile 70 μm filter with PBS • Cells were collected by centrifugation in an 15 ml tube, the cell pellet was resuspended in 1 ml of Erylyse buffer and incubated at room temperature for 5 minutes, tubes were filled up with PBS and cells were washed twice • Cells were counted and resuspended in the desired buffer volume for MACS-enrichment or flow cytometric analysis Isolation of CD4 T Cells from OT-II Transgenic Mice • Splenocytes were resuspended in MACS buffer ([…] MACS-buffer/10^7 cells) • CD4 T cells were isolated using the CD4 T cell isolation kit (Miltenyi) with LS-columns following manufacturer's recommendations CFSE-Labeling of T Cells • Cells were resuspended in PBS with 0.1% BSA at 1×10^7 cells/ml and CFSE-solution was added to final concentration of 2.5 μM CFSE • Incubated for 10 min at 37° C., swung each 2 min • Same volume of FCS added and incubated for 5 min at room temperature • Cells were washed twice with RMPI-10% FCS medium • Cells were counted and resuspended in PBS or medium at desired concentration OT-II Transfer • Day 0: OT-II cells were transferred in PBS (3*10^6. Cells in 100 μl PBS) by retro-orbital injection • Day 1: WT mice got OVA vaccinated (subcut. flank, 10 μg LPS, 2 μg OVA per animal) • 2 & 4 h later compounds were administrated; for oral dosing compound was used as suspension (0.5% methylcellulose in water), for i.v. dosing compound was solubilized in DMSO and diluted with PBS • Day 2: compounds were administrated twice in the morning (with 2 h time interval) • Day 3: Mice were sacrificed & splenocytes were isolated • T cell proliferation & phenotype was determined by flow cytometry • Flow cytometry-Staining (all Abs purchased from eBioscience and used as recommended by the manufacturer): B220-eF450, CD4-PE, CD25PerCPCy5.5, CD69-PC7, TCRVa2-APC, CD8-AF700, CD3-eF780; CFSE; 7-AAD • Acquisition on Beckman-Coulter Gallios, Analysis using Kaluza Software OT-I Transfer to Mice with B16-F10-OVA Tumors • Day 0: 100000 B16-F10-OVA tumor cells were inoculated subcutaneously at the flank of WT-mice • Day 7: OT-I cells were transferred in PBS (3*10^6. […]
# [2] = system: CD4 T cells, CD8 T cells and NK cells of B16-F10-OVA tumor bearing mice; assay: Immune modulation of B16-F10-OVA tumor bearing mice: activation markers in tumor draining lymph nodes (flow cytometry); type: in vivo, mouse; conditions: day 15
# Method: as §1
# [3] = system: non-stimulated PBMCs; assay: Non-stimulated PBMCs: cytokine secretion and signs of T-cell activation; type: cell-based, human
# Source text: This is an important finding for compounds that shall selectively act on T cells which have been activated by presence of antigen from pathogens or tumors, but shall not lead to an unwanted general activation of all T cells of a patient.
# [4] = system: aCD3/aCD28-stimulated human PBMCs; assay: Cytokine production in aCD3/aCD28 stimulated human PBMCs; type: cell-based; conditions: PBMC, 18 h
# Summary of the method: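 Compound effects measured in buffy-coat PBMCs activated 18 h at 37° C by 1 μg/mL each of soluble anti-CD3 (OKT3) and anti-CD28 (28.2), 1e6 cells/mL. Cytokines in harvested supernatants read by MSD or HTRF.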
# [5] = system: OT-II cells; assay: OT-II transfer model, oral administration: antigen-specific T cell proliferation and CD69; type: in vivo, mouse; conditions: LPS & OVA; 10 mg/kg dosed orally
# Method: as §1
compound,measurement,setting,value
N[C@H]1CS(=O)(=O)c2cc(F)c(C(=O)NC3CC3(F)F)cc2N(Cc2ccc(Cl)cc2)C1=O (stereo partly shown) [Compound Ex. 1],Average CD4 expression,[1]; 10 mg/kg orally,7.07 EF1a * 10^4
same,Average CD8 expression,[1]; 10 mg/kg orally,6.28 EF1a * 10^4
same,Average IFN-g expression,[1]; 10 mg/kg orally,0.75 EF1a * 10^4
same,Average IL-2 expression,[1]; 10 mg/kg orally,0.043 EF1a * 10^4
same,Average IL-12 expression,[1]; 10 mg/kg orally,0.074 EF1a * 10^4
same,Average IL-23 expression,[1]; 10 mg/kg orally,0.480 EF1a * 10^4
same,Average Ratio Eomes/Foxp3,[1]; 10 mg/kg orally,0.66
same,Average Ratio Rorgc/Foxp3,[1]; 10 mg/kg orally,5.38
same,Average Ratio T-bet/Foxp3,[1]; 10 mg/kg orally,8.35
same,Average TNF-a expression,[1]; 10 mg/kg orally,9.96 EF1a * 10^4
same,Average CD4 expression,[1]; 30 mg/kg orally,9.65 EF1a * 10^4
same,Average CD8 expression,[1]; 30 mg/kg orally,10.72 EF1a * 10^4
same,Average IFN-g expression,[1]; 30 mg/kg orally,1.23 EF1a * 10^4
same,Average IL-2 expression,[1]; 30 mg/kg orally,0.085 EF1a * 10^4
same,Average IL-12 expression,[1]; 30 mg/kg orally,0.120 EF1a * 10^4
same,Average IL-23 expression,[1]; 30 mg/kg orally,0.611 EF1a * 10^4
same,Average Ratio Eomes/Foxp3,[1]; 30 mg/kg orally,0.64
same,Average Ratio Rorgc/Foxp3,[1]; 30 mg/kg orally,6.17
same,Average Ratio T-bet/Foxp3,[1]; 30 mg/kg orally,9.59
same,Average TNF-a expression,[1]; 30 mg/kg orally,14.97 EF1a * 10^4
same,Average CD25+ cells,"[2]; CD4 T cells, 10 mg/kg orally",15.63 % gated
same,Average CD69+ cells,"[2]; CD4 T cells, 10 mg/kg orally",13.34 % gated
same,Average CD107a+ cells,"[2]; CD4 T cells, 10 mg/kg orally",5.03 % gated
same,Average PD1+ cells,"[2]; CD4 T cells, 10 mg/kg orally",10.73 % gated
same,Average CD25+ cells,"[2]; CD4 T cells, 30 mg/kg orally",15.91 % gated
same,Average CD69+ cells,"[2]; CD4 T cells, 30 mg/kg orally",14.25 % gated
same,Average CD107a+ cells,"[2]; CD4 T cells, 30 mg/kg orally",5.43 % gated
same,Average PD1+ cells,"[2]; CD4 T cells, 30 mg/kg orally",10.36 % gated
same,Average CD25+ cells,"[2]; CD8 T cells, 10 mg/kg orally",1.95 % gated
same,Average CD69+ cells,"[2]; CD8 T cells, 10 mg/kg orally",5.25 % gated
same,Average CD107a+ cells,"[2]; CD8 T cells, 10 mg/kg orally",2.00 % gated
same,Average PD1+ cells,"[2]; CD8 T cells, 10 mg/kg orally",3.12 % gated
same,Average CD25+ cells,"[2]; CD8 T cells, 30 mg/kg orally",2.88 % gated
same,Average CD69+ cells,"[2]; CD8 T cells, 30 mg/kg orally",5.91 % gated
same,Average CD107a+ cells,"[2]; CD8 T cells, 30 mg/kg orally",4.24 % gated
same,Average PD1+ cells,"[2]; CD8 T cells, 30 mg/kg orally",6.71 % gated
same,Average CD69+ cells,"[2]; NK cells, 10 mg/kg orally",34.43 % gated
same,Average CD107a+ cells,"[2]; NK cells, 10 mg/kg orally",12.85 % gated
same,Average PD1+ cells,"[2]; NK cells, 10 mg/kg orally",19.91 % gated
same,Average CD69+ cells,"[2]; NK cells, 30 mg/kg orally",32.55 % gated
same,Average CD107a+ cells,"[2]; NK cells, 30 mg/kg orally",10.98 % gated
same,Average PD1+ cells,"[2]; NK cells, 30 mg/kg orally",13.61 % gated
"CC(=O)NCCCCCOc1ccc(CNC(=O)c2ccc3c(c2)N(Cc2ccc(Cl)cc2)C(=O)[C@@H](N)CS3(=O)=O)cc1.Cl [Example 78, (3R)-3-amino-5-[(4-chlorophenyl)methyl]-N-({4-[(5-acetamidopentyl)oxy]phenyl}-methyl)-1,1,4-trioxo-2,3,4,5-tetrahydro-1λ^6,5-benzothiazepine-7-carboxamide hydrochloride]",cytokine secretion or other signs of T-cell activation,[3],did not enhance cytokine secretion or other signs of T-cell activation
same,EC50,"[4]; enhancement of IFN-γ production, read-out: Activity Class IFN-γ",< 1580 nM
same,EC50,"[4]; enhancement of IL-2 production, read-out: Activity Class IL-2",< 1580 nM
N[C@H]1CS(=O)(=O)c2cc(F)c(C(=O)NC3CC3(F)F)cc2N(Cc2ccc(Cl)cc2)C1=O (stereo partly shown) [compound ex. 1],"CD69+ cells, B cells of recipient animal",[5],2.10 % gated
same,"CD69+ cells, CD8 T cells of recipient animal",[5],3.48 % gated
same,"CD69+ cells, WT CD4 T cells of recipient animal",[5],7.00 % gated
same,"CD69+ cells, transferred OT-II cells",[5],46.92 % gated
